22 compounds from patent publication US20120309622A1, “HERBICIDES CONTAINING SUBSTITUTED THIEN-3-YL-SULPHONYLAMINIO(THIO)CARBONYL-TRIAZOLIN(ETHI)ONES” (BAYER INTELLECTUAL PROPERTY GMBH, priority 2001, published 2012) can be followed below.

Assay in all cases: Post-emergence test/greenhouse, % damage after three weeks
Format in all cases: in vivo

One assay deals with Bromus secalinus. As for the experimental part: (§1) The expected action for a given combination of two herbicides can be calculated as follows (cf. COLBY, S. R.: “Calculating synergistic and antagonistic responses of herbicide combinations”, Weeds 15, pages 20-22, 1967):
(§2) If the actual damage exceeds the calculated value, the combination has a superadditive effect, that is to say a synergistic effect.
(§3) Test plants are grown under control conditions (temperature and light).
(§4) Following the spray application, the plant containers are kept in the greenhouse under constant light and temperature conditions.
(§5) After three weeks, the degree of damage to the plants is rated in % damage in comparison to the development of the untreated control.

Another assay has as its system Alopecurus myosuroides.
Excerpt: as §1
(§6) If • X=% damage by herbicide A (active compound of the formula I) at an application rate of p kg/ha and • Y=% damage by herbicide B (active compound of the formula II) at an application rate of q kg/ha and • E=the expected damage of herbicides A+B at an application rate of p+q kg/ha, then
as §2
(§7) Test plants are grown under control conditions (temperature and light). Once the plants have reached a height of 5 to 15 cm, the test compound or the combination of test compounds is applied by spraying such that the particular amounts of active compound desired are applied per unit area. The concentration of the spray liquor is chosen so that the particular amounts of active compound desired are applied in 500 litres of water/ha.
as §4, §5
(§8) The figures denote: • 0%=no effect (like untreated control) • 100%=total destruction

The next assay relates to Avena fatua.
Excerpt: as §1, §6, §2, §7, §4, §5, §8

For the next assay, the system named is Matricaria inodora.
Excerpt: as §1, §6, §2, §7, §4, §5, §8

Another assay concerns Chenopodium album.
Excerpt: as §1, §6, §2, §7, §4, §5, §8

In another assay the test system is Setaria viridis. The settings on record: for Setria viridis observed: post-emergence.
Excerpt: as §1, §6, §2, §7, §4, §5, §8

A further assay relates to Cyperus esculentus.
Excerpt: as §1, §6, §2, §7, §4, §5, §8

For another assay, the system named is Veronica persicaria. As for the experimental part:
as §1, §2, §3, §4, §5

A further assay has as its system Lolium perenne.
A further assay relates to Digitaria sanguinalis.
Excerpt: as §1, §6, §2, §7, §4, §5, §8

Where [1] appears, read: Bromus secalinus, post-emergence, 504 h, 2 g of ai/ha, read-out: Bromus secalinus observed.
The mark [2] stands for this setting: Bromus secalinus, post-emergence, 504 h, 4 g of ai/ha, read-out: Bromus secalinus observed.
The mark [3] stands for this setting: Bromus secalinus, post-emergence, 504 h, read-out: Bromus secalinus observed.
Where [4] appears, read: Bromus secalinus, post-emergence, 504 h, 8 g of ai/ha, read-out: Bromus secalinus observed.

Where two headings read alike, the source gives them in different places.

In the case of terbuthylazine, the Bromus secalinus observed in the assay with Bromus secalinus (500 g of ai/ha) came out at 50%.
With `O=C(Nc1ccc(F)cc1F)c1cccnc1Oc1cccc(C(F)(F)F)c1` [diflufenican, N-(2,4-di-fluorophenyl)-2-(3-trifluoromethylphenoxy)pyridine-3-carboxamide, reference compound], the Alopecurus myosuroides observed in the assay with Alopecurus myosuroides (30 g of ai/ha) is listed as 50%; in the assay on Alopecurus myosuroides (60 g of ai/ha), 50%; with Alopecurus myosuroides (125 g of ai/ha) it was 70%. Also, the Avena fatua observed in the assay on Avena fatua (125 g of ai/ha) is given as 50%. For the same compound, the pest or weed control at 30 g/ha in the assay on Bromus secalinus (Bromus secalinus, post-emergence, 504 h, 30 g of ai/ha, read-out: Bromus secalinus observed) came to 10%.
For the compound `C[C@@H](Oc1ccc(Cl)cc1Cl)C(=O)O` [dichlorprop-P, (R)-2-(2,4-dichlorophen-oxy)propanoic acid, reference compound], the Alopecurus myosuroides observed was 0% in the assay on Alopecurus myosuroides (60 g of ai/ha), 0% with Alopecurus myosuroides (125 g of ai/ha) and 20% in the assay on Alopecurus myosuroides (250 g of ai/ha). The figures for the Avena fatua observed in the assay with Avena fatua (125 g of ai/ha) and with Avena fatua (250 g of ai/ha) were 0% and 10%, respectively. The Matricaria inodora observed in the assay on Matricaria inodora (60 g of ai/ha), in the assay on Matricaria inodora (125 g of ai/ha) and in the assay on Matricaria inodora (250 g of ai/ha) was 0% in each case.
`N#Cc1cc(Br)c(O)c(Br)c1` [bromoxynil, 3,5-dibromo-4-hydroxybenzonitrile, reference compound]: in the assay on Chenopodium album (250 g of a.i./ha), the “Activity against Chenopodium album (%)” value is 80%.
For `CCOC(=O)COc1cc(-c2nn(C)c(OC(F)F)c2Cl)c(F)cc1Cl` [pyraflufen ethyl], the Setria viridis observed with Setaria viridis (application rate 2 g of ai/ha) and with Setaria viridis (application rate 4 g of ai/ha) was 40% in each case.
`CS(=O)(=O)c1cc(C(F)(F)F)ccc1C(=O)c1cnoc1C1CC1` [isoxaflutole]: the Alopecurus myosuroides observed in the assay on Alopecurus myosuroides (2 g of ai/ha) and in the assay on Alopecurus myosuroides (4 g of ai/ha) was 0% in each case. In addition, in the assay on Matricaria inodora (4 g of ai/ha), the Matricaria inodora observed stood at 70%. In the assay with Bromus secalinus (setting [1]), the pest or weed control at 2 g/ha came out at 0%. Further, the pest or weed control at 4 g/ha in the assay with Bromus secalinus (setting [2]) amounted to 0%.
Take `COc1c(Cl)ccc(Cl)c1C(=O)O` [dicamba, 3,6-dichloro-2-methoxybenzoic acid, reference compound]: the Alopecurus myosuroides observed with Alopecurus myosuroides (30 g of ai/ha) and with Alopecurus myosuroides (60 g of ai/ha) was 0% throughout. Moreover, the Cyperus esculentus observed with Cyperus esculentus (30 g of ai/ha) and in the assay with Cyperus esculentus (125 g of ai/ha) was 0% in each case. In the assay with Veronica persicaria (60 g of ai/ha), the Veronica persicaria observed worked out at 40%.
Turning to `COc1nc(C)nc(=NC(=O)NS(=O)(=O)c2ccccc2C(=O)O)[nH]1` [metsulfuron], the Cyperus esculentus observed in the assay with Cyperus esculentus (4 g of ai/ha) worked out at 30%. Also, the pest or weed control at 2 g/ha in the assay with Bromus secalinus (setting [1]) is 0%. The pest or weed control at 4 g/ha in the assay on Bromus secalinus (setting [2]) turned out to be 0%. The Lolium perenne observed in the assay with Lolium perenne (2 g of ai/ha) turned out to be 70%.
As to `C[S+](C)C.O=C([O-])CNCP(=O)(O)O` [sulfosate], the Alopecurus myosuroides observed in the assay on Alopecurus myosuroides (250 g of ai/ha) was 30%. In the assay on Lolium perenne (250 g of ai/ha), this compound showed a Lolium perenne observed of 70%.
As to `COC(=O)c1ccc(CNS(C)(=O)=O)cc1S(=O)(=O)NC(=O)Nc1nc(OC)cc(OC)n1` [mesosulfuron], the Cyperus esculentus observed with Cyperus esculentus (8 g of ai/ha) and with Cyperus esculentus (15 g of ai/ha) was 70% in each case. The Bromus secalinus observed in the assay with Bromus secalinus (8 g of ai/ha) was 0%.
On to iodosulfuron, for which the Setaria viridis observed in the assay with Setaria viridis (2 g of ai/ha) and with Setaria viridis (4 g of ai/ha) was 0% throughout. For the same compound, the Bromus secalinus observed in the assay on Bromus secalinus (2 g of ai/ha) and in the assay on Bromus secalinus (4 g of ai/ha) was 0% in each case. In addition, the Veronica persicaria observed with Veronica persicaria (2 g of ai/ha) is listed as 90%.
For the compound fluroxypyr, the Matricaria inodora observed in the assay with Matricaria inodora (60 g of ai/ha) was 30%; with Matricaria inodora (125 g of ai/ha), 70%. In addition, the Bromus secalinus observed in the assay with Bromus secalinus (60 g of ai/ha) and in the assay on Bromus secalinus (125 g of ai/ha) was 0% throughout. For the same compound, the Veronica persicaria observed in the assay on Veronica persicaria (125 g of ai/ha) is given as 90%.
Consider `CCOC(=O)C(Cl)Cc1cc(-n2nc(C)n(C(F)F)c2=O)c(F)cc1Cl` (centres unmarked) [carfentrazone-ethyl, 2-(4-chloro-2-fluoro-5-(2-chloro-2-ethoxycarbonylethyl)phenyl)-4-difluoromethyl-5-methyl-2,4-dihydro-3H-1,2,4-triazol-3-one, reference compound], for which, in the assay with Alopecurus myosuroides (8 g of ai/ha), the Alopecurus myosuroides observed came out at 0%. Moreover, the Chenopodium album observed came out at 0% with Chenopodium album (2 g of ai/ha), 30% with Chenopodium album (4 g of ai/ha) and 50% in the assay on Chenopodium album (8 g of ai/ha). Further, the Cyperus esculentus observed in the assay on Cyperus esculentus (4 g of ai/ha) came to 0%; in the assay with Cyperus esculentus (8 g of ai/ha), 30%.
`CCS(=O)(=O)Nc1cc(-n2nc(C(F)(F)F)n(C)c2=O)c(F)cc1C(N)=S` [HWH 4991]: the values for the Bromus secalinus observed with Bromus secalinus (30 g of ai/ha) and in the assay with Bromus secalinus (60 g of ai/ha) were 20% and 30%, respectively. Moreover, in the assay on Veronica persicaria (30 g of ai/ha), the Veronica persicaria observed is given as 90%. Further, the Lolium perenne observed with Lolium perenne (30 g of ai/ha) turned out to be 20%; in the assay on Lolium perenne (60 g of ai/ha) it was 60%.
With `CNC1=C(c2cccc(C(F)(F)F)c2)C(=O)C(c2ccccc2)O1` (centres unmarked) [flurtamone], the Matricaria inodora observed with Matricaria inodora (30 g of ai/ha) was 30%. For the same compound, the pest or weed control at 60 g/ha with Bromus secalinus (setting [3]) amounted to 30%.
Regarding `CC(Cl)CC(=O)Nc1c([N+](=O)[O-])cnn1-c1c(Cl)cc(C(F)F)cc1Cl` (centres unmarked) [SLA 5599], the Avena fatua observed with Avena fatua (30 g of ai/ha) and in the assay with Avena fatua (60 g of ai/ha) was 0% each time. The Veronica persicaria observed in the assay with Veronica persicaria (30 g of ai/ha) amounted to 80%. Besides, the values for the Lolium perenne observed in the assay on Lolium perenne (30 g of ai/ha) and in the assay with Lolium perenne (60 g of ai/ha) were 0% and 30%, respectively.
As to `COc1nc(NC(=O)NS(=O)(=O)c2ccccc2C(F)(F)F)nc(C(F)(F)F)n1` [tritosulfuron], the Digitaria sanguinalis observed with Digitaria sanguinalis (15 g of ai/ha) is reported as 30%; in the assay on Digitaria sanguinalis (30 g of ai/ha), 40%. Further, the Setaria viridis observed with Setaria viridis (30 g of ai/ha) came out at 0%. Further, the Lolium perenne observed in the assay on Lolium perenne (15 g of ai/ha) and in the assay with Lolium perenne (30 g of ai/ha) was 0% throughout.
For `CCOC(=O)COc1cc(-c2nn(C)c(OC(F)F)c2Cl)c(F)cc1Cl` [pyraflufen-ethyl], in the assay on Bromus secalinus (setting [3]), the pest or weed control at 2 g/ha came out at 30%. For the same compound, in the assay with Bromus secalinus (setting [3]), the pest or weed control at 4 g/ha amounted to 30%. Moreover, the Lolium perenne observed in the assay with Lolium perenne (2 g of ai/ha) is reported as 0%; with Lolium perenne (4 g of ai/ha), 30%.
Regarding imazamox, the Digitaria sanguinalis observed in the assay on Digitaria sanguinalis (8 g of ai/ha) is given as 30%. Besides, the Matricaria inodora observed came out at 30% with Matricaria inodora (8 g of ai/ha) and 50% with Matricaria inodora (15 g of ai/ha). Besides, in the assay on Bromus secalinus (8 g of ai/ha), the Bromus secalinus observed is on record as 60%.
Turning to sulcotrione, the Bromus secalinus observed is given as 0% in the assay with Bromus secalinus (60 g of ai/ha) and 30% with Bromus secalinus (120 g of ai/ha).
As for `COC(=O)c1ccccc1S(=O)(=O)NC(=O)N(C)c1nc(C)nc(OC)n1` [tribenuron-methyl], the Cyperus esculentus observed in the assay with Cyperus esculentus (4 g of ai/ha) and with Cyperus esculentus (8 g of ai/ha) was 0% each time. In addition, the pest or weed control at 4 g/ha in the assay on Bromus secalinus (setting [2]) was 0%. Further, the pest or weed control at 8 g/ha in the assay on Bromus secalinus (setting [4]) was determined as 0%. The Veronica persicaria observed in the assay on Veronica persicaria (4 g of ai/ha) is 90%.
Regarding `COc1cc(OC)nc(NC(=O)NS(=O)(=O)N(C)S(C)(=O)=O)n1` [amidosulfuron, N-(4,6-di-methoxypyrimidin-2-yl)-N′—(N-methyl-N-methylsulphonylsulphamoyl)urea, reference compound], the Avena fatua observed in the assay on Avena fatua (8 g of ai/ha) and in the assay on Avena fatua (15 g of ai/ha) was 0% in each case. The figures for the Setaria viridis observed in the assay with Setaria viridis (8 g of ai/ha) and in the assay with Setaria viridis (15 g of ai/ha) were 0% and 30%, respectively. Also, in the assay on Bromus secalinus (setting [4]), the pest or weed control at 8 g/ha is 0%.
